# Data as given in patent US12643867B2, “Compositions and uses thereof” (University of Virginia Patent Foundation, priority 2017, dated 2026).
# How the values were obtained:
# recombinant DGKα [1] = target: T1, recombinant DGKα (Rattus norvegicus, UniProt P51556); assay: Gel-based ATP acyl phosphate chemical proteomic assay; format: binding; conditions: for blockade of DGKα ATP probe labeling: compounds 100 μM (ATP 1 mM; RF001 at indicated concentrations), probe 10 μM
# T1 construct: expressed in transfected cells; host or cells: HEK293T (SILAC HEK293T for LC-MS)
# T1 sequence (P51556 whole entry): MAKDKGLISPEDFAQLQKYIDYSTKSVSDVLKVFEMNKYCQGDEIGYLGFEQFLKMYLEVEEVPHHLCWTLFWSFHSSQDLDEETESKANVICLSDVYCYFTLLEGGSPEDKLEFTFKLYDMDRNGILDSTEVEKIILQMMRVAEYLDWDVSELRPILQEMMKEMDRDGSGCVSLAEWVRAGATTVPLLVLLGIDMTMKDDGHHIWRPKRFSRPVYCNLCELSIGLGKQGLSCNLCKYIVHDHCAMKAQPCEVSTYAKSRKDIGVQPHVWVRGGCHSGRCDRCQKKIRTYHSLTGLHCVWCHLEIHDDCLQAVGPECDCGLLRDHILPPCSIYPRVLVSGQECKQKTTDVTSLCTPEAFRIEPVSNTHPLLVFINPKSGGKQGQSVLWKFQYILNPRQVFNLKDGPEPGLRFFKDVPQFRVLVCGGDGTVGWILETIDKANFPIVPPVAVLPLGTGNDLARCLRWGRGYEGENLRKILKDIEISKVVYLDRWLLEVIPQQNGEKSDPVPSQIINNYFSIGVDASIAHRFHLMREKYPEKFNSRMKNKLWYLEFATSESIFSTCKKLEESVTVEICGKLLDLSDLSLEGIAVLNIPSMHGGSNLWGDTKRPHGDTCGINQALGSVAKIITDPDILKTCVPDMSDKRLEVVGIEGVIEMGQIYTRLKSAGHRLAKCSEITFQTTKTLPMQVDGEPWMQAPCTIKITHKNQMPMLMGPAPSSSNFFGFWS
# Protocol: Cell pellets were resuspended in kinase buffer (Dulbecco's PBS (DPBS, Hyclone), 20 mM MgCl2, EDTA-free protease inhibitors (Pierce)) and then lysed by sonication (3×1 sec pulse, 20% amplitude). The cell lysates were then subjected to centrifugation (100,000×g, 45 min at 4° C.) to isolate the cytosolic fraction in the supernatant and the membrane fraction as a pellet. The membrane pellet was resuspended in kinase buffer by sonication. […] The only exception was experiments involving DGKE; recombinant DGKE protein was most prominently expressed in the membrane fraction and so this fraction was utilized to study DGKE enzyme (see FIG. 8). Protein concentrations were measured using the Bio-Rad DC protein assay. Samples were stored at −80° C. until use.
# Proteome concentration was adjusted to 2 mg/mL in kinase buffer. Proteomes were first pre-treated with compound (0.6 μL, 50× stock in DMSO) mixed with gentle flicking, and incubated for 30 min at 25° C. in a microfuge tube (30 μL reaction volume). […] Reactions were then quenched with 10 AL of 4×SDS-PAGE loading buffer. Protein samples (15 μL) were loaded onto 4-20% TGX Stain-Free Protein Midi Gel and resolved by SDS-PAGE at 150V for 55 min. Proteins were then transferred to a nitrocellulose blot by Bio-Rad Trans-Blot Turbo Transfer System (25V. 10 min) to enhance sensitivity. The nitrocellulose blot was then incubated in blocking solution (30 mL, 3% BSA in TBS-T) for 1 h at 25° C. with gentle shaking. The blot was then transferred immediately to antibody solution (30 mL, 5% BSA in ddH2O with 0.1% Tween20 and 1:3000 Streptavidin DyLight 550) and incubated for 2 h at 25° C. with gentle shaking. The blot was then rinsed 5 times for 5 min in TBS-T. and then transferred into ddH2O. The blot was then imaged by in-blot fluorescence scanning on a ChemiDoc MP Imaging System. Fluorescence intensity signals were normalized to total lane protein using the Bio-rad Stain Free imaging (Posch et al., 2013).
# (§1) The percentage of enzyme activity remaining was determined by comparing integrated band intensities or luminescence of inhibitor—with DMSO-treated samples for gel-based chemical proteomic or ADP-glo assays, respectively. For both chemical proteomic and ADP-glo methods, nonlinear regression analysis was used to determine the IC50 values from a dose-response curve generated using GraphPad Prism. Data are shown as mean±s.e.m. Determination of significance was performed by one-way ANOVA. All statistical analyses were performed using GraphPad Prism.
# recombinant DGKα [2] = target: T1, recombinant DGKα; assay: ADP-glo DAG phosphorylation substrate assay; format: biochemical
# Protocol: The ADP-Glo DAG phosphorylation substrate assay was adapted from Sato et al (Sato et al., 2013). Transfected HEK cells expressing recombinant FLAG-DGKA were harvested in DPBS and centrifuged at 1400×g for 3 min. Supernatant was removed and 1 mL Lysis Buffer (50 mM HEPES (pH 7.2), 150 mM NaCl, 5 mM MgCL2, 1 mM DTT, 1 mM phenylmethylsulfonyl […], Phosphatase Inhibitor Cocktail 2 (Sigma-Aldrich), and EDTA-Free Protease Inhibitor Mini Tablets (Pierce)) was added and cells re-suspended. Solutions were sonicated (3×1 sec pulse, 20% amplitude) and then centrifuged at 400×g for 5 min. Supernatant was separated and protein concentrations were measured using the Bio-Rad DC protein assay and diluted in Lysis Buffer as appropriate. Samples were stored at −80° C. until use.
# Micelles were prepared from lipid stocks as follows: Reaction Buffer (50 mM MOPS (pH 7.4). 1 mM DTT. 100 mM NaCl. 20 mM NaF, and |μM CaCl2)) was prepared in ddH2O. […] 1,2-dioleoyl-sn-glycerol (DG) and 1.2-dioleoyl-sn-glycero-3-phospho-L-serine (DOPS) in chloroform were mixed and then dried under nitrogen. Triton Buffer was added to the dried lipids to a final concentration of 10 mM DG and 8 mM DOPS. This solution was incubated at room temperature for 5 min with gentle shaking, followed by sonication (3×1 sec pulse, 20% amplitude). The micelles were then diluted 4-fold in reaction buffer to yield the final micelle buffer. […] of lysate was aliquoted into each well of a 96 well plate, followed by micelle buffer to a final volume of 20 μL. 19 μL of this mix was added to 1 μL of DMSO or inhibitor solution and incubated at 30° C. for 30 min. After incubation, 5 μL of reaction initiator was added to each well and mixed thoroughly, followed by aliquoting 5 μL of each reaction mixture to a 96-well half area black polystyrene plate and incubated at 30° C. for 30 min. At this point the procedure for the ADP-GloTM assay (Promega) was performed. 5 μL of ‘ADP-Glo Reagent’ was added to each well, mixed thoroughly, and allowed to incubate at 25° C. for 40 min. Then 10 μL of the ‘Kinase Detection Reagent’ was added to each well, mixed thoroughly, and allowed to incubate at 25° C. for 40 min. Luminescence was measured with no filter and an integration time of 1 sec per well on a BMG Labtech CLARIOstar plate reader.
# as §1
# [3] = DGKα-HEK293T proteome, read-out: IC50, DGKα inhibition, DAG phosphorylation substrate assay
# [4] = read-out: 95% confidence intervals for IC50 values, substrate assay
activity against DGKα in the substrate assay (recombinant DGKα [2]; 100 μM),"inhibition at 1000 µM (recombinant DGKα [1]; 1 mM, read-out: inhibition of DGKα activity in the probe-binding assay) [%]",SMILES,blockade of DGKα ATP probe labeling (recombinant DGKα [1]; 30 min),IC50 (recombinant DGKα [2]; [3]) [µM],IC50 (recombinant DGKα [2]; [4]) [µM],"IC50 (recombinant DGKα [1]; IC50, blockade of ATP probe labeling of DGKα (gel-based), 10 μM ATP probe, 30 min) [µM]","IC50 (recombinant DGKα [1]; read-out: 95% confidence intervals for IC50 values, gel-based assay) [µM]",blockade of recombinant DGKα activity (recombinant DGKα [2]; 100 μM compound) [%],"blockade of DGKα activity (recombinant DGKα [2]; 100 μM, from substrate- and chemical proteomic-assays) [%]"
negligible activity,–,O=C(c1ccc(F)cc1)C1CCN(CCn2c(=O)[nH]c3ccccc3c2=O)CC1 [Ketanserin],not ketanserin,–,–,–,–,–,–
–,> 80,"Fc1ccc(C(=C2CCNCC2)c2ccc(F)cc2)cc1 [RF001, 4-(Bis(4-fluorophenyl)methylene) piperidine]",blocked probe labeling in a concentration-dependent manner,223,120 to 414,–,–,–,–
–,–,Cc1nc2sccn2c(=O)c1CCN1CCC(=C(c2ccc(F)cc2)c2ccc(F)cc2)CC1 [Ritanserin],blocked probe labeling,25,20 to 30,57,17 to 192,~80,~70
